Measurements: patent publication US12410141B2, “Anti-cancer spirocyclic-guanidine compounds and uses thereof” (The Johns Hopkins University, priority 2020, dated 2025)

Experiments:
OVCAR3 [1] = test: Flow cytometry analysis of cell death, OVCAR3; format: cell-based; settings: 1 μM or 2 μM, 16 hr
Experimental: 10^5 cells were re-suspended in binding buffer, 5 μL of Annexin V-PE (Apoptosis Detection Kit I (BD Pharmingen) and 5 μL of 7-AAD were then added into the cells, which were then incubated at room temperature for 15 minutes and analyzed by flow cytometry on a FACSCalibur using CellQuest software (Becton Dickinson).
Two ovarian cancer cell lines, ES2 and OVCAR3, were treated with 1 μM or 2 μM RA475 and 16 hr later the cells were harvested and stained with 7-AAD and Annexin V. 7-AAD is a DNA dye that can enter dying cells and Annexin V is commonly used to detect apoptotic cells by its ability to bind to phosphatidylserine, an early marker of apoptosis when it is exposed on the outer leaflet of the plasma membrane.

CD-1 mice = test: Single-dose tolerability in CD-1 mice; format: in vivo, mouse
Experimental: All animal procedures were performed according to protocols approved by the Johns Hopkins University Animal Care and Use Committee, and in accordance with the AAALAC recommendations for the proper use and care of laboratory animals (protocol MO15M375, renewed as MO18M129). Four to six week old female CD-1 mice were purchased from Jackson Laboratories (ME, USA). Isoflurane anesthesia was used during imaging. The health conditions and/or criteria under which early euthanasia or withdrawal of an animal from the study was implemented included, but are not limited to, general signs of distress such as hunched posture, lethargy, anorexia, dehydration, rough hair coat and/or those that are directly related to the experimental procedures e.g. loss of weight >10%, lethargy, restricted movement of limbs, distended abdomen. Animals in distress were euthanized by carbon dioxide asphyxiation, and cervical dislocation was used to ensure death. This is an acceptable form of euthanasia for mice and in compliance with the recommendations of the Panel on Euthanasia of the American Veterinary Medical Association.
RA475 powder was directly dissolved in 25% β-hydroxy propyl cyclodextrin as a clear solution and administered at increasing single doses to CD-1 mice (n=3) via intraperitoneal injection.

4T1 = test: MTT cytotoxicity assay, 4T1; format: cell-based; settings: 4T1, breast (TNBC), 72 hr, read-out: IC50, cell killing
Experimental: (§1) All cell lines were obtained from the American Type Culture Collection (ATCC) and cultured in the specified medium supplemented with 10% fetal bovine serum, 100 IU/mL penicillin, and 100 μg/mL streptomycin at 37° C. in a humidified 5% CO2/95% air incubator. To assess drug cytotoxicity cells were seeded at 2,500 cells/well (10,000 cells/well for MM lines and primary cells) in 100 μL medium in 96-well plate. […]
(§2) It was examined whether the RPN13 inhibitor, RA475, was cytotoxic for cancer cell lines using the MTT assay.

HCT116 = test: MTT cytotoxicity assay, HCT116; format: cell-based; settings: HCT116, colon, 72 hr, read-out: IC50, cell killing
Experimental: as §1, §2

PEO23 = test: MTT cytotoxicity assay, PEO23; format: cell-based; settings: PEO23, ovarian, 72 hr, read-out: IC50, cell killing
Experimental: as §1, §2

[2] = system: ID8-Vegf Defb29 cells stably expressing firefly luciferase in C57BL6 mice; test: ID8-Luc syngeneic ovarian tumor model; format: in vivo, mouse; settings: female C57BL6 mice, 40 mg/Kg every 3 days, i.p.
Experimental: Whereas vehicle treatment (n=7) increased tumor burden and ascites formation.
Briefly, female C57BL6 mice were injected (i.p.) with ID8-Vegf Defb29 cells stably expressing firefly luciferase (0.5×10^6 cells) in PBS (100 uL). After 72 hrs, mice were imaged for their basal luminescence levels using an IVIS200 imager. Mice with visible luminescence were randomized into two groups and treated with Vehicle (25% b-hydroxy propylcyclodextrin in water, 200 uL, every 3 days, i.p.) and RA475 (40 mg/Kg, every 3 days, i.p.). Mice were imaged every week to measure bioluminescence expressed by tumor after administration of luciferin (100 uL, 7.8 mg/mL).

OVCAR3 [3] = test: MTT cytotoxicity assay, OVCAR3; format: cell-based; settings: OVCAR3, ovarian, 72 hr, read-out: IC50, cell killing
Experimental: as §1, §2

HepG2 = test: MTT cytotoxicity assay, HepG2; format: cell-based; settings: HepG2, liver, 72 hr, read-out: IC50, cell killing
Experimental: as §1, §2

U251MG = test: MTT cytotoxicity assay, U251MG; format: cell-based; settings: glioblastoma multiforme, 72 hr, read-out: IC50, cell killing
Experimental: as §1, §2

BT549 = test: MTT cytotoxicity assay, BT549; format: cell-based; settings: BT549, breast, 72 hr, read-out: IC50, cell killing
Experimental: as §1, §2

SMILES: Cl.Cl.N#Cc1ccc(/C=C2/C(=O)/C(=C/c3ccc(C#N)cc3)C23CCN(C(=N)N)CC3)cc1 [RA475]
- 7-AAD and Annexin V double positive cells (OVCAR3 [1]): dose-dependent induction
- NOAEL (CD-1 mice; single dose, intraperitoneal, 80 mg/Kg highest dose level tested): > 80 mg/kg
- adverse events (CD-1 mice; single i.p. doses at or below 80 mg/Kg): No evidence of adverse events, including weight loss
- IC50 (4T1): 261 nM
- IC50 (HCT116): 430 nM
- IC50 (PEO23): 350 nM
- body weight [2]: no weight loss
- effect on tumor (bioluminescence) [2]: regressed tumor
- survival [2]: enhanced survival
- IC50 (OVCAR3 [3]): 190 nM
- IC50 (HepG2): 241 nM
- IC50 (U251MG): 600 nM
- IC50 (BT549): 229 nM
